Assay results as given in patent US20040132707A1, “Catecholate beta-lactam conjugates, method for producing the same and the use thereof” (Gruenenthal GmbH, priority 2001, published 2004).
≈ marks a conversion by molar mass, not a printed value.

How the values were obtained:
Experiment in all cases: Microdilution MIC assay (NCCLS M7-A)
Type in all cases: cell-based
[1] = tested on: Escherichia coli ATCC 25922; settings: strain ATCC 25922
Method: (§1) The antibacterial activity was tested by a microdilution assay according to National Committee for Clinical Laboratory Standards, 1998, Methods for dilution antimicrobial susceptibility tests for bacteria that grow aerobically, Approved standard M7-A, NCCLS, Villanova, Pa.
(§2) The minimal inhibition concentrations (MICs) were determined for the following bacterial strains: The Gram-negative strains Pseudomonas aeruginosa SG 137, ATCC 27853, Escherichia coli ATCC 25922, Klebsiella pneumoniae ATCC 10031, Stenotrophomonas maltophilia GN 12873, Serratia marcescens SG 621 as well as for the Gram-positive strain Staphylococcus aureus SG 511.

[2] = tested on: Klebsiella pneumoniae ATCC 10031; settings: strain ATCC10031
Method: as §1, §2

[3] = tested on: Staphylococcus aureus SG 511; settings: strain SG511
Method: as §1, §2

[4] = tested on: Pseudomonas aeruginosa ATCC 27853; settings: strain ATCC 27853
Method: as §1, §2

[5] = tested on: Pseudomonas aeruginosa SG 137; settings: strain SG137
Method: as §1, §2

[6] = tested on: Serratia marcescens SG 621; settings: strain SG621
Method: as §1, §2

[7] = tested on: Stenotrophomonas maltophilia GN 12873; settings: strain GN12873
Method: as §1, §2

Row | Structure (SMILES) | MIC E. coli ATCC 25922 [1] | MIC Klebsiella pneumoniae ATCC10031 [2] | MIC Staph. aureus SG511 [3] | MIC Pseudomonas aeruginosa ATCC 27853 [4] | MIC Pseudomonas aeruginosa SG137 [5] | MIC Serratia marc. SG621 [6] | MIC Stenotroph. maltoph. GN12873 [7]
1 | CC(=O)Oc1cccc(C(=O)NCCCN(CCCN(Cc2ccccc2C(=O)N[C@@H](C(=O)N[C@@H]2C(=O)N3[C@@H]2SC(C)(C)[C@@H]3C(=O)O)c2ccccc2)C(=O)c2cccc(OC(C)=O)c2OC(C)=O)C(=O)c2cccc(OC(C)=O)c2OC(C)=O)c1OC(C)=O [Example 23, N-{2-[2,6,10-Tris-(2,3-diacetoxybenzoyl)-2,6,10-triaza-decyl]-benzoyl}-ampicillin] | 6.25 µg/mL (≈ 4.97 µM) | 0.78 µg/mL (≈ 0.62 µM) | 12.5 µg/mL (≈ 9.94 µM) | 1.56 µg/mL (≈ 1.24 µM) | 0.78 µg/mL (≈ 0.62 µM) | 3.12 µg/mL (≈ 2.48 µM) | 0.2 µg/mL (≈ 0.159 µM)
2 | CC(=O)Oc1cccc(C(=O)NCCCCN(Cc2ccc(OCC(=O)NC(C(=O)NC3C(=O)N4C3SC(C)(C)C4C(=O)O)c3ccccc3)cc2)C(=O)c2cccc(OC(C)=O)c2OC(C)=O)c1OC(C)=O (centres unmarked) [Example 17, N-{4-[2,7-Bis-(2,3-diacetoxybenzoyl)-2,7-diaza-heptyl]-phenoxyacetyl}-ampicillin] | 0.78 µg/mL (≈ 0.762 µM) | <0.05 µg/mL | 1.56 µg/mL (≈ 1.52 µM) | 6.25 µg/mL (≈ 6.1 µM) | 0.2 µg/mL (≈ 0.195 µM) | 6.25 µg/mL (≈ 6.1 µM) | 0.2 µg/mL (≈ 0.195 µM)
3 | CC(=O)Oc1cccc(C(=O)NCCCCN(CC(=O)NC(C(=O)NC2C(=O)N3C2SC(C)(C)C3C(=O)O)c2ccc(O)cc2)C(=O)c2cccc(OC(C)=O)c2OC(C)=O)c1OC(C)=O (centres unmarked) [Example 11, N-[3,8-Bis-(2,3-diacetoxybenzoyl)-3,8-diaza-octanoyl]-amoxicillin] | 0.01 µg/mL (≈ 0.0107 µM) | <0.005 µg/mL | 3.12 µg/mL (≈ 3.34 µM) | 0.1 µg/mL (≈ 0.107 µM) | 0.01 µg/mL (≈ 0.0107 µM) | <0.005 µg/mL | <0.005 µg/mL
4 | CC(=O)Oc1cccc(C(=O)NCCCCN(CC(=O)N[C@@H](C(=O)N[C@@H]2C(=O)N3[C@@H]2SC(C)(C)[C@@H]3C(=O)O)c2ccccc2)C(=O)c2cccc(OC(C)=O)c2OC(C)=O)c1OC(C)=O [Example 10, N-[3,8-Bis-(2,3-diacetoxybenzoyl)-3,8-diaza-octanoyl]-ampicillin] | <0.005 µg/mL | <0.005 µg/mL | 3.12 µg/mL (≈ 3.4 µM) | 0.05 µg/mL (≈ 0.0545 µM) | <0.005 µg/mL | <0.005 µg/mL | <0.005 µg/mL
5 | COC(=O)Oc1cccc(C(=O)N(C)CCCN(CC(=O)NC(C(=O)NC2C(=O)N3C2SC(C)(C)C3C(=O)O)c2ccccc2)C(=O)c2cccc(OC(=O)OC)c2OC(=O)OC)c1OC(=O)OC (centres unmarked) [Example 1, N-[3,7-Bis-(2,3-dimethoxycarbonyloxybenzoyl)-3,7-diaza-octanoyl]-ampicillin] | 0.062 µg/mL (≈ 0.0631 µM) | 0.008 µg/mL (≈ 0.00815 µM) | 10 µg/mL (≈ 10.2 µM) | 0.031 µg/mL (≈ 0.0316 µM) | 0.031 µg/mL (≈ 0.0316 µM) | 0.078 µg/mL (≈ 0.0794 µM) | 0.062 µg/mL (≈ 0.0631 µM)
6 | CC(=O)Oc1cccc(C(=O)N(C)CCCN(Cc2ccccc2C(=O)N[C@@H](C(=O)N[C@@H]2C(=O)N3[C@@H]2SC(C)(C)[C@@H]3C(=O)O)c2ccccc2)C(=O)c2cccc(OC(C)=O)c2OC(C)=O)c1OC(C)=O [Example 19, N-{2-[2,6-Bis-(2,3-diacetoxybenzoyl)-2,6-diaza-heptyl]-benzoyl}-ampicillin] | 0.78 µg/mL (≈ 0.785 µM) | 0.1 µg/mL (≈ 0.101 µM) | 1.56 µg/mL (≈ 1.57 µM) | 3.12 µg/mL (≈ 3.14 µM) | 0.1 µg/mL (≈ 0.101 µM) | 0.78 µg/mL (≈ 0.785 µM) | 0.2 µg/mL (≈ 0.201 µM)
7 | COC(=O)Oc1cc(Cl)c(Cl)c(C(=O)N(C)CCCN(CC(=O)NC(C(=O)NC2C(=O)N3C2SC(C)(C)C3C(=O)O)c2ccccc2)C(=O)c2c(Cl)c(Cl)cc(OC(=O)OC)c2OC(=O)OC)c1OC(=O)OC (centres unmarked) [Example 12, N-{3,7-Bis-(2,3-dichlor-5,6-di-methoxycarbonyloxy-benzoyl)-3,7-diaza-octanoyl}-ampicillin] | 0.02 µg/mL (≈ 0.0179 µM) | <0.005 µg/mL | 3.12 µg/mL (≈ 2.79 µM) | 0.1 µg/mL (≈ 0.0893 µM) | 0.05 µg/mL (≈ 0.0447 µM) | 0.05 µg/mL (≈ 0.0447 µM) | 0.05 µg/mL (≈ 0.0447 µM)
8 | CC(=O)Oc1cccc(C(=O)N(C)CCCN(CC(=O)N[C@@H](C(=O)N[C@@H]2C(=O)N3[C@@H]2SC(C)(C)[C@@H]3C(=O)O)c2ccccc2)C(=O)c2cccc(OC(C)=O)c2OC(C)=O)c1OC(C)=O [Example 9, N-[3,7-Bis-(2,3-diacetoxybenzoyl)-3,7-diaza-octanoyl]-ampicillin] | 0.02 µg/mL (≈ 0.0218 µM) | <0.005 µg/mL | 3.12 µg/mL (≈ 3.4 µM) | 0.08 µg/mL (≈ 0.0872 µM) | 0.005 µg/mL (≈ 0.00545 µM) | 0.05 µg/mL (≈ 0.0545 µM) | 0.02 µg/mL (≈ 0.0218 µM)
9 | CC(=O)Oc1cccc(C(=O)NCCCCN(Cc2ccccc2C(=O)NC(C(=O)NC2C(=O)N3C2SC(C)(C)C3C(=O)O)c2ccccc2)C(=O)c2cccc(OC(C)=O)c2OC(C)=O)c1OC(C)=O (centres unmarked) [Example 18, N-{2-[2,7-Bis-(2,3-diacetoxybenzoyl)-2,7-diaza-heptyl]-benzooyl}-ampicillin] | 0.4 µg/mL (≈ 0.402 µM) | <0.05 µg/mL | 6.25 µg/mL (≈ 6.29 µM) | 0.2 µg/mL (≈ 0.201 µM) | 0.04 µg/mL (≈ 0.0402 µM) | 0.24 µg/mL (≈ 0.241 µM) | <0.05 µg/mL
10 | CC(=O)Oc1cccc(C(=O)NCCCCCCN(CCCCCCN(CC(=O)NC(C(=O)NC2C(=O)N3C2SC(C)(C)C3C(=O)O)c2ccccc2)C(=O)c2cccc(OC(C)=O)c2OC(C)=O)C(=O)c2cccc(OC(C)=O)c2OC(C)=O)c1OC(C)=O (centres unmarked) [Example 2, N-[3,10,17-Tris-(2,3-diacetoxybenzoyl)-3,10,17-triaza-heptadecanoyl]-ampicillin] | 0.4 µg/mL (≈ 0.316 µM) | 0.4 µg/mL (≈ 0.316 µM) | 6.25 µg/mL (≈ 4.94 µM) | 3.125 µg/mL (≈ 2.47 µM) | <0.05 µg/mL |  | 
11 | CCOC(=O)OC(C)OC(=O)[C@@H]1N2C(=O)[C@@H](NC(=O)[C@H](NC(=O)CN(CCCCCCN(CCCCCCNC(=O)c3cccc(OC(C)=O)c3OC(C)=O)C(=O)c3cccc(OC(C)=O)c3OC(C)=O)C(=O)c3cccc(OC(C)=O)c3OC(C)=O)c3ccccc3)[C@H]2SC1(C)C (some centres unmarked) [Example 5, N-[3,10,17-Tris-(2,3-diacetoxybenzoyl)-3,10,17-triaza-heptadecanoyl]-bacampicillin] | 100 µg/mL (≈ 72.4 µM) | 0.2 µg/mL (≈ 0.145 µM) |  | 25 µg/mL (≈ 18.1 µM) | 25 µg/mL (≈ 18.1 µM) | 0.4 µg/mL (≈ 0.29 µM) | 50 µg/mL (≈ 36.2 µM)
12 | CC(=O)Oc1cccc(C(=O)NCCCCCCN(CCCCCCN(CC(=O)NC(C(=O)NC2C(=O)N3C(C(=O)O)=C(Cl)CSC23)c2ccccc2)C(=O)c2cccc(OC(C)=O)c2OC(C)=O)C(=O)c2cccc(OC(C)=O)c2OC(C)=O)c1OC(C)=O (centres unmarked) [Example 4, N-[3,10,17-Tris-(2,3-diacetoxybenzoyl)-3,10,17-triaza-heptadecanoyl]-cefaclor] | 0.2 µg/mL (≈ 0.156 µM) | <0.05 µg/mL | 6.25 µg/mL (≈ 4.87 µM) | 1.56 µg/mL (≈ 1.22 µM) | 0.2 µg/mL (≈ 0.156 µM) |  | 50 µg/mL (≈ 38.9 µM)
